Data as given in ChEMBL document CHEMBL5291721, “A preclinical secondary pharmacology resource illuminates target-adverse drug reaction associations of marketed drugs” (Nat Commun, 2023).

Key:
Adenosine receptor A1 = biological target: T1, Adenosine receptor A1 (Homo sapiens, UniProt P30542)
T1 sequence (P30542 whole entry): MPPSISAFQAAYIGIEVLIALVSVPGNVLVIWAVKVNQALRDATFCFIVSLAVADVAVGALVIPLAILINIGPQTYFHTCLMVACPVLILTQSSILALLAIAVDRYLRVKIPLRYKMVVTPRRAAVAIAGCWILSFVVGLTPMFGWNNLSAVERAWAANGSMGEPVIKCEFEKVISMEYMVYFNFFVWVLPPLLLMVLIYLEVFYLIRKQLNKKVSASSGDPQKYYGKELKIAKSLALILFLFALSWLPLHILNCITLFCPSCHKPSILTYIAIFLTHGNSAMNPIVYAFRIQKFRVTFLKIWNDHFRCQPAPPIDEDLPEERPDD

Adenosine receptor A2a = Adenosine receptor A2a (Homo sapiens, UniProt P29274)
Adenosine receptor A2a, sequence (P29274 whole entry): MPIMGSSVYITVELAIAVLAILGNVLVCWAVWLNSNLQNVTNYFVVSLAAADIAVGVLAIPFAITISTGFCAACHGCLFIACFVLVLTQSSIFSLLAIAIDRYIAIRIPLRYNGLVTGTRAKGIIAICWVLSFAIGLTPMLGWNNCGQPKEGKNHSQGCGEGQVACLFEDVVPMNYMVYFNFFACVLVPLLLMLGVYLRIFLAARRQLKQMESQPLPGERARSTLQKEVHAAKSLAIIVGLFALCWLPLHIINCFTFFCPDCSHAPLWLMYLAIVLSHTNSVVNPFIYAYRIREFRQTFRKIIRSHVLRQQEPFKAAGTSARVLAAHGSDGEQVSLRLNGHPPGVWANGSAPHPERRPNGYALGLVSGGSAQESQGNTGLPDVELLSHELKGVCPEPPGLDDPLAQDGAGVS

B2 bradykinin receptor = biological target: T2, B2 bradykinin receptor (Homo sapiens, UniProt P30411)
T2 sequence (P30411 whole entry): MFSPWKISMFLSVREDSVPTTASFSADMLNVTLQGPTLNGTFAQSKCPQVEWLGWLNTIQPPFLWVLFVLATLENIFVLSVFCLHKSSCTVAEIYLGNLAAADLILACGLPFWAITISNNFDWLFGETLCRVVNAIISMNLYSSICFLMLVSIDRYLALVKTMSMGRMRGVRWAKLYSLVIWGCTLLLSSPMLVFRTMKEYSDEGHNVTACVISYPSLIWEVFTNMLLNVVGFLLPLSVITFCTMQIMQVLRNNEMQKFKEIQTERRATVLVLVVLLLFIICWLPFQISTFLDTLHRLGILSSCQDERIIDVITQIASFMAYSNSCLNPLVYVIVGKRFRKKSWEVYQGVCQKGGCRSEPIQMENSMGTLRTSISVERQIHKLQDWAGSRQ

[1] = biological target: Voltage-dependent L-type calcium channel subunit alpha-1C (Rattus norvegicus, UniProt P22002); assay type: functional
Voltage-dependent L-type calcium channel subunit alpha-1C, sequence (P22002 whole entry): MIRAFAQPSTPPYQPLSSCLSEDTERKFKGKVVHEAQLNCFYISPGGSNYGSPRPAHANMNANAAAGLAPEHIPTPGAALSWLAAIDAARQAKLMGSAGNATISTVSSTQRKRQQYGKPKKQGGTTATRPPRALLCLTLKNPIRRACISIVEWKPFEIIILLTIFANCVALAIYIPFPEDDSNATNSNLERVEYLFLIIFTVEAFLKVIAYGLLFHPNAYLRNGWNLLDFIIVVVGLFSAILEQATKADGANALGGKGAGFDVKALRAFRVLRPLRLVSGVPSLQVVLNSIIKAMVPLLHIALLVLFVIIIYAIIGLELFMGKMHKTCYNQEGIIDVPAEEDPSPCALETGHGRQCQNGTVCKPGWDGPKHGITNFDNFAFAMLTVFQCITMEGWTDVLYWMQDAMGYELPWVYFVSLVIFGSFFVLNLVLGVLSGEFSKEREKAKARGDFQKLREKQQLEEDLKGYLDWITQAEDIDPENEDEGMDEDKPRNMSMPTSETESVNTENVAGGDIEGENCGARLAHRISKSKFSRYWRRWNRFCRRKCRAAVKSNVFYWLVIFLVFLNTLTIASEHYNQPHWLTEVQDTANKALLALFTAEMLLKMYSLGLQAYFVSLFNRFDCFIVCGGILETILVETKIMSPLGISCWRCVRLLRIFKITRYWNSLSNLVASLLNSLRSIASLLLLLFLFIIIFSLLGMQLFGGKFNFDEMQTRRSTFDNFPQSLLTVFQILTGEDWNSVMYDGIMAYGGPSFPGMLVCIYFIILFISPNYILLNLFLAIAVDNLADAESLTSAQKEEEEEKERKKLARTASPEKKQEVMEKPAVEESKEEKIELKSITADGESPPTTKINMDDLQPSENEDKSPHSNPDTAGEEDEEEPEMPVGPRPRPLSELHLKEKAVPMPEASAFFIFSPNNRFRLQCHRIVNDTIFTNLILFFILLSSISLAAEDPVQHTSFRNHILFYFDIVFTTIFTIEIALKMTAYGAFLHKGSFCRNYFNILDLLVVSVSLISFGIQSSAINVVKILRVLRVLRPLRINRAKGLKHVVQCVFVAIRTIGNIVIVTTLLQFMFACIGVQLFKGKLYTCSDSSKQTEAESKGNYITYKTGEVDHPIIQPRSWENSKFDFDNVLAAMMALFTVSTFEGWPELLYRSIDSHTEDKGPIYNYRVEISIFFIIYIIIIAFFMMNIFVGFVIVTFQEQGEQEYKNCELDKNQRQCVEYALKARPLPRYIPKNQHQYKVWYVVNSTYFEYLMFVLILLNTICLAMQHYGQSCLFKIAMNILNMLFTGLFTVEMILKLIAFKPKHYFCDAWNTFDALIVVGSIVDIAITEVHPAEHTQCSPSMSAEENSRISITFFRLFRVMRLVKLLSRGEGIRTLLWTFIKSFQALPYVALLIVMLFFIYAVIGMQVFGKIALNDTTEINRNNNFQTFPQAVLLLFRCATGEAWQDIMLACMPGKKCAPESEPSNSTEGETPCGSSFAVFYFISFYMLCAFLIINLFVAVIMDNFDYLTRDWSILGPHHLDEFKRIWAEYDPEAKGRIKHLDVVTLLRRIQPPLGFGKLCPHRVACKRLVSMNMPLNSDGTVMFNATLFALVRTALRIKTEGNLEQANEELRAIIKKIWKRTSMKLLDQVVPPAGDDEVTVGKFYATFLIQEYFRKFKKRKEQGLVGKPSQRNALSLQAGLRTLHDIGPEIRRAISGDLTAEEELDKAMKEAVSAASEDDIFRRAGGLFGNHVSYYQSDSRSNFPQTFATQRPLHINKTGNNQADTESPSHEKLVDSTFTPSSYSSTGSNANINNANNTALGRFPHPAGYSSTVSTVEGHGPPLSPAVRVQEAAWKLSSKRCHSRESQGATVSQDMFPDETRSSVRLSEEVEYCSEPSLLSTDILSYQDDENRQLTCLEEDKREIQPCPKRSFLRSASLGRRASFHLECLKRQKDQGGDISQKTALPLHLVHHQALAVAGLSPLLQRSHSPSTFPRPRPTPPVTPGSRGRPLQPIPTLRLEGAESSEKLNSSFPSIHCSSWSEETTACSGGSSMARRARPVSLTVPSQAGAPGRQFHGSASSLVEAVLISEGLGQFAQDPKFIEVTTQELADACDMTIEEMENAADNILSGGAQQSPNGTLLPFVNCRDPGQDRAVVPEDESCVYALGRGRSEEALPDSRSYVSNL

[2] = biological target: Neuronal acetylcholine receptor subunit alpha-4 (Homo sapiens, UniProt P43681)
Neuronal acetylcholine receptor subunit alpha-4, sequence (P43681 whole entry): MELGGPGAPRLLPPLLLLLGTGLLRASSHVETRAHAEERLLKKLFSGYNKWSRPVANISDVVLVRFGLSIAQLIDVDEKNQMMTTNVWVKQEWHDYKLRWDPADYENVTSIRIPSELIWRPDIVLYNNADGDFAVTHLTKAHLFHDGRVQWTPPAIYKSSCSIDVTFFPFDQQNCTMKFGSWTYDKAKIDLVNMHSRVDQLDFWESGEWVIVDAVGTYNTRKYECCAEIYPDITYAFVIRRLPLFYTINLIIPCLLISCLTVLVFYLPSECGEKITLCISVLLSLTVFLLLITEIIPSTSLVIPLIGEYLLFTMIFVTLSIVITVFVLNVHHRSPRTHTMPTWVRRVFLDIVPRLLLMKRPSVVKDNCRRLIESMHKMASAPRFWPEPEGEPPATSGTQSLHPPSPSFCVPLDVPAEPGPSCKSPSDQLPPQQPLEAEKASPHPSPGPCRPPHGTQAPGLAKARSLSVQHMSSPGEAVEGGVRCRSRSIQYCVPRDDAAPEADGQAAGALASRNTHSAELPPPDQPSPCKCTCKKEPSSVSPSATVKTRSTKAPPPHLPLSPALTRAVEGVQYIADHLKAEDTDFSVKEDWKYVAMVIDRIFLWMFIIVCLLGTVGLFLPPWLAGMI

Cannabinoid receptor 1 = Cannabinoid receptor 1 (Homo sapiens, UniProt P21554)
Cannabinoid receptor 1, sequence (P21554 whole entry): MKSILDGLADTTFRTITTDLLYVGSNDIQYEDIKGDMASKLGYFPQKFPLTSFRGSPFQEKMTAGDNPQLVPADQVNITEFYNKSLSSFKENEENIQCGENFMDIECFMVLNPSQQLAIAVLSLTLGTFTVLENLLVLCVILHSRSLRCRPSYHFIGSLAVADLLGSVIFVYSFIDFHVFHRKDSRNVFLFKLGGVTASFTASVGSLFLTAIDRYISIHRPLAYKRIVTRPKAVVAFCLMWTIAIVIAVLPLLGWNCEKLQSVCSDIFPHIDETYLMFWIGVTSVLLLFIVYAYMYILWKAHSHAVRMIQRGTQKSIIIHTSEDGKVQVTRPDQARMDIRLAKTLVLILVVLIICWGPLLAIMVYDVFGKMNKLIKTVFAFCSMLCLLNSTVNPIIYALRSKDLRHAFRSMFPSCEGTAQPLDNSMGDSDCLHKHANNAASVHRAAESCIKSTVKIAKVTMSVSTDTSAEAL

[3] = biological target: T3, 5-hydroxytryptamine receptor 3A (Homo sapiens, UniProt P46098); assay type: functional
T3 sequence (P46098 whole entry): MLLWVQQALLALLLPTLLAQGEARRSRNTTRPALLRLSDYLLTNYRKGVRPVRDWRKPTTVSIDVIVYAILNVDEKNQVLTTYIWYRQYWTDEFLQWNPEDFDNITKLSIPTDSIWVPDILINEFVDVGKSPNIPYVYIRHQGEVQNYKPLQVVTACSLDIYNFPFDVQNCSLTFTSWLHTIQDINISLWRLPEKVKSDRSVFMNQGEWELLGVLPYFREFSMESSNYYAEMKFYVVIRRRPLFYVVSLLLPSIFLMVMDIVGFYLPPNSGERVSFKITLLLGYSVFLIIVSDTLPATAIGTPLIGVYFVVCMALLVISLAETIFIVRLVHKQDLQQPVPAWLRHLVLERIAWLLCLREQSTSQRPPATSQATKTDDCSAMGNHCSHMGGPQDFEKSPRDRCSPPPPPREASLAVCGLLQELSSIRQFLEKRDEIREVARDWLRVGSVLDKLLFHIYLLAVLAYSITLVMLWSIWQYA

Progesterone receptor = biological target: T4, Progesterone receptor (Homo sapiens, UniProt P06401); assay type: functional
T4 sequence (P06401 whole entry): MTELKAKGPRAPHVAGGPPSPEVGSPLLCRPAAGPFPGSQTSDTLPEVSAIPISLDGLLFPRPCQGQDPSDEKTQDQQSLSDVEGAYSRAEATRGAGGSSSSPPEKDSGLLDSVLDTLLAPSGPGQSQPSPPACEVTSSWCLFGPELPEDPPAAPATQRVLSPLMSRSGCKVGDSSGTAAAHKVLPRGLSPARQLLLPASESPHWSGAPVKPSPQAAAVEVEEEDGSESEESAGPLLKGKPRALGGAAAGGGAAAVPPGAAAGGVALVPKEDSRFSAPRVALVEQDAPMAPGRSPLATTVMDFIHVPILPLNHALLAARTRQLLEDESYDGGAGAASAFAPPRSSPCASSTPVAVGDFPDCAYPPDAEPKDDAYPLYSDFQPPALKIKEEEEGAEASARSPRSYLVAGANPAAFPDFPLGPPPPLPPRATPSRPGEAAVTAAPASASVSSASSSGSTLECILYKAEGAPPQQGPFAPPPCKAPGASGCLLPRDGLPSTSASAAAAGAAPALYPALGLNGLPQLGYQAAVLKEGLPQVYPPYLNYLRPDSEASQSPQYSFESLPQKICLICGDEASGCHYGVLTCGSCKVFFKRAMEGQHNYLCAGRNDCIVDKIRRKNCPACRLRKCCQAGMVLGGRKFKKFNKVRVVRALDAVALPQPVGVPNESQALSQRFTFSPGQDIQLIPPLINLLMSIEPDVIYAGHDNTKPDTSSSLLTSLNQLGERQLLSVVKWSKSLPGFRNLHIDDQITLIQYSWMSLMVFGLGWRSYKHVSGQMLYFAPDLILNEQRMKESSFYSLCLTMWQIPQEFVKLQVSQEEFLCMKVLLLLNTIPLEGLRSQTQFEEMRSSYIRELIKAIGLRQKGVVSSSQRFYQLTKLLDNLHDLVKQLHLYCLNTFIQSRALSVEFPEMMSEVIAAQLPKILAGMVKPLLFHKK

D(3) dopamine receptor = D(3) dopamine receptor (Homo sapiens, UniProt P35462)
D(3) dopamine receptor, sequence (P35462 whole entry): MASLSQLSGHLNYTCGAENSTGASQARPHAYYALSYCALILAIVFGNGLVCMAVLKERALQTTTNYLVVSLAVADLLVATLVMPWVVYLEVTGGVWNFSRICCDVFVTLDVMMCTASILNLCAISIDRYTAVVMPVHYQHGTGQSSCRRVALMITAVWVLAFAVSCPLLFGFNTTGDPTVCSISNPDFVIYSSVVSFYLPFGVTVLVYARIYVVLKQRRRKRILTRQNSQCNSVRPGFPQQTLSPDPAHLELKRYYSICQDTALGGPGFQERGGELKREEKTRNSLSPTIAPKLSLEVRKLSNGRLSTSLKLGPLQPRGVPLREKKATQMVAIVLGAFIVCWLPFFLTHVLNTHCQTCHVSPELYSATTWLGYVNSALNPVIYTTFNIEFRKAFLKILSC

Adenosine receptor A3 = biological target: T5, Adenosine receptor A3 (Homo sapiens, UniProt P0DMS8)
T5 sequence (P0DMS8 whole entry): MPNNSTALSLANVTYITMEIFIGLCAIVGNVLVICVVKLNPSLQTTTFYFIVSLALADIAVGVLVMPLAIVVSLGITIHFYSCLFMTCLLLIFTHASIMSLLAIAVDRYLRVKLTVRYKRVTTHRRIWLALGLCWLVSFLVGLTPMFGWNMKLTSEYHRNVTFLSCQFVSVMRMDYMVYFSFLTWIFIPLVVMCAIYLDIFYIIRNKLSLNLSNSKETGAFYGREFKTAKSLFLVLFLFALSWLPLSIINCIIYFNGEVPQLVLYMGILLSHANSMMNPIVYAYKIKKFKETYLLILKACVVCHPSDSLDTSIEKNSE

Measured: AC50
Further: assay procedure not described here.

C[N+]1(C)CCC(=C(c2ccccc2)c2ccccc2)CC1
16.2 µM: [2]
> 10 µM: [1] | Cannabinoid receptor 1 | Progesterone receptor
6.1 µM: [3]
not listed: Adenosine receptor A3
> 30 µM: all other assays above

CN(C)Cc1nnc2n1-c1ccc(Cl)cc1C(c1ccccc1)=NC2 [ADINAZOLAM]
> 30 µM: [3] | D(3) dopamine receptor
not listed: Adenosine receptor A3
> 10 µM: all other assays above

Cc1ccccc1-n1c(CF)nc2ccc(N)cc2c1=O [AFLOQUALONE]
> 10 µM: [1] | Cannabinoid receptor 1
not listed: Adenosine receptor A3
> 30 µM: all other assays above

CCOC(=O)c1ccc(N)cc1 [BENZOCAINE]
> 30 µM: [3] | D(3) dopamine receptor
not listed: Adenosine receptor A3
> 10 µM: all other assays above

CC(C)(Oc1ccc(CCNC(=O)c2ccc(Cl)cc2)cc1)C(=O)O [BEZAFIBRATE]
> 30 µM: [3] | D(3) dopamine receptor
not listed: Adenosine receptor A3
> 10 µM: all other assays above

O=C(O)COCCN1CCN(C(c2ccccc2)c2ccc(Cl)cc2)CC1 (configuration not stated) [CETIRIZINE]
> 10 µM: [2] | Cannabinoid receptor 1
> 30 µM: Adenosine receptor A1 | Adenosine receptor A2a | Adenosine receptor A3 | B2 bradykinin receptor | [3]

C/C=C(/C(=C/C)c1ccc(O)cc1)c1ccc(O)cc1 [DIENESTROL]
> 10 µM: B2 bradykinin receptor | [1] | [2] | Cannabinoid receptor 1
not listed: Adenosine receptor A3
> 30 µM: all other assays above

CN[C@]1(c2ccccc2Cl)CCCCC1=O [ESKETAMINE]
not listed: Adenosine receptor A3
> 30 µM: all other assays above

COc1ccc([C@@H]2CC(=O)c3c(O)cc(O)cc3O2)cc1O [HESPERETIN]
> 30 µM: [3] | D(3) dopamine receptor
not listed: Adenosine receptor A3
> 10 µM: all other assays above

CCC[C@@H]1C[C@@H](C(=O)N[C@@H]([C@H]2O[C@H](SC)[C@H](O)[C@@H](O)[C@H]2O)[C@@H](C)O)N(C)C1 [LINCOMYCIN]
> 30 µM: [3] | D(3) dopamine receptor
not listed: Progesterone receptor | Adenosine receptor A3
> 10 µM: all other assays above

C=C1c2cccc(O)c2C(=O)C2=C(O)[C@]3(O)C(=O)C(C(N)=O)=C(O)[C@@H](N(C)C)[C@@H]3[C@@H](O)[C@H]12 [METHACYCLINE]
> 10 µM: [1] | Cannabinoid receptor 1
not listed: Adenosine receptor A3
> 30 µM: all other assays above

CN(Cc1cnc2nc(N)nc(N)c2n1)c1ccc(C(=O)N[C@@H](CCC(=O)O)C(=O)O)cc1 [METHOTREXATE]
> 10 µM: [1] | [2] | Cannabinoid receptor 1
not listed: Progesterone receptor | Adenosine receptor A3
> 30 µM: all other assays above

Cc1ccccc1N1C(=O)c2cc(S(N)(=O)=O)c(Cl)cc2NC1C (configuration not stated) [METOLAZONE]
> 30 µM: [3] | D(3) dopamine receptor
not listed: Adenosine receptor A3
> 10 µM: all other assays above

O=C(O)c1cccnc1Nc1cccc(C(F)(F)F)c1 [NIFLUMIC ACID]
> 30 µM: [3] | D(3) dopamine receptor
not listed: Adenosine receptor A3
> 10 µM: all other assays above

O=C1c2cccc3c2[C@H](CCC3)CN1[C@@H]1CN2CCC1CC2 [PALONOSETRON]
38.5 µM: [2]
0.0021 µM: [3]
29 µM: D(3) dopamine receptor
not listed: Adenosine receptor A3
> 30 µM: all other assays above

O=C1c2ccccc2C(=O)C1c1ccccc1 [PHENINDIONE]
> 30 µM: [3] | D(3) dopamine receptor
not listed: Adenosine receptor A3
> 10 µM: all other assays above

COC(=O)[C@H]1[C@H]2C[C@@H]3c4[nH]c5cc(OC)ccc5c4CCN3C[C@H]2C[C@@H](OC(=O)c2cc(OC)c(OC)c(OC)c2)[C@@H]1OC [RESERPINE]
17.7 µM: Adenosine receptor A3
8.83 µM: [1]
> 10 µM: B2 bradykinin receptor | [2] | Cannabinoid receptor 1 | Progesterone receptor
> 30 µM: all other assays above

C[C@]12CCC(=O)C[C@@H]1CC[C@@H]1[C@@H]2CC[C@]2(C)[C@@H](O)CC[C@@H]12 [STANOLONE]
not listed: Progesterone receptor | Adenosine receptor A3
> 30 µM: all other assays above

C[C@]12C=CC(=O)C=C1CC[C@@H]1[C@@H]2CC[C@]2(C)OC(=O)CC[C@@H]12 [TESTOLACTONE]
> 30 µM: [3] | D(3) dopamine receptor
not listed: Adenosine receptor A3
> 10 µM: all other assays above
